In the NIST ThermoML archive (doi:10.1021/je200637v) one finds activity coefficient data, which are given here for 38 molecules.

SMILES strings stand for the structures. ± gives the expanded uncertainty stated by the source.

The data set can be described thus: activity coefficient (dimensionless); of the first substance listed, at infinite dilution; xn = mol fraction of the nth substance listed. The note with it: Liquid, Chromatography, x1 = 0.

With `Cc1ccc(C)cc1` [1,4-dimethylbenzene] + CCCCCCCCCC[N+](C)(C)C.O=S(=O)([N-]S(=O)(=O)C(F)(F)F)C(F)(F)F, the activity coefficient worked out at 1.12 ± 0.03 (322.85 K), 1.15 ± 0.04 (332.65 K) and 1.13 ± 0.03 (343.15 K).
On to `C[N+](=O)[O-]` [nitromethane] + CCCC[N+](C)(CCCC)CCCC.O=S(=O)([N-]S(=O)(=O)C(F)(F)F)C(F)(F)F, for which the activity coefficient was determined as 0.65 ± 0.03 (322.85 K), 0.65 ± 0.03 (332.65 K) and 0.62 ± 0.03 (343.15 K).
As for `OCC(F)(F)F` [2,2,2-trifluoroethanol] + CCCC[N+](C)(CCCC)CCCC.O=S(=O)([N-]S(=O)(=O)C(F)(F)F)C(F)(F)F, the activity coefficient was found to be 0.5 ± 0.03 (322.85 K), 0.48 ± 0.03 (332.65 K) and 0.45 ± 0.03 (343.15 K).
The like results for `C1CCCCC1` [cyclohexane] + CCCCCCCCCC[N+](C)(C)C.O=S(=O)([N-]S(=O)(=O)C(F)(F)F)C(F)(F)F were, in that order, 2.9 ± 0.13, 2.96 ± 0.13 and 2.8 ± 0.13.
The like results for `CCCO` [propan-1-ol] + CCCC[N+](C)(CCCC)CCCC.O=S(=O)([N-]S(=O)(=O)C(F)(F)F)C(F)(F)F were, in that order, 1.78 ± 0.08, 1.64 ± 0.07 and 1.48 ± 0.06.
Consider `CC(C)CC(C)(C)C` [2,2,4-trimethylpentane] + CCCCCCCC[N+](C)(C)C.O=S(=O)([N-]S(=O)(=O)C(F)(F)F)C(F)(F)F, for which the activity coefficient turned out to be 8.1 ± 0.37 (322.85 K), 7.66 ± 0.35 (332.65 K) and 7.14 ± 0.33 (343.15 K).
The corresponding values for `c1ccsc1` [thiophene] + CCCCCCCCCC[N+](C)(C)C.O=S(=O)([N-]S(=O)(=O)C(F)(F)F)C(F)(F)F are 0.65 ± 0.03, 0.7 ± 0.03 and 0.68 ± 0.03.
Take `CCCCCCCCCCC` [undecane] + CCCCCCCCCC[N+](C)(C)C.O=S(=O)([N-]S(=O)(=O)C(F)(F)F)C(F)(F)F: the activity coefficient is, setting by setting: (322.85 K) 12.4 ± 0.57; (332.65 K) 12.2 ± 0.56; (343.15 K) 11.4 ± 0.52.
The corresponding values for `CCCO` [propan-1-ol] + CCCCCCCCCC[N+](C)(C)C.O=S(=O)([N-]S(=O)(=O)C(F)(F)F)C(F)(F)F are 1.48 ± 0.06, 1.37 ± 0.05 and 1.21 ± 0.04.
The corresponding values for `c1ccsc1` [thiophene] + CCCCCCCC[N+](C)(C)C.O=S(=O)([N-]S(=O)(=O)C(F)(F)F)C(F)(F)F are 0.69 ± 0.03, 0.69 ± 0.03 and 0.69 ± 0.03.
The like results for `c1ccncc1` [pyridine] + CCCC[N+](C)(CCCC)CCCC.O=S(=O)([N-]S(=O)(=O)C(F)(F)F)C(F)(F)F were, in that order, 0.55 ± 0.03, 0.56 ± 0.03 and 0.56 ± 0.03.
With `CCCCCCCCC` [nonane] + CCCCCCCC[N+](C)(C)C.O=S(=O)([N-]S(=O)(=O)C(F)(F)F)C(F)(F)F, the activity coefficient came out at 15.9 ± 0.74 (322.85 K), 14.8 ± 0.68 (332.65 K) and 13.4 ± 0.62 (343.15 K).
The like results for `CC(C)CO` [2-methyl-1-propanol] + CCCCCCCCCC[N+](C)(C)C.O=S(=O)([N-]S(=O)(=O)C(F)(F)F)C(F)(F)F were, in that order, 1.59 ± 0.06, 1.47 ± 0.06 and 1.31 ± 0.05.
The like results for `CCC(=O)CC` [pentan-3-one] + CCCCCCCC[N+](CCCCCCCC)(CCCCCCCC)CCCCCCCC.O=S(=O)([N-]S(=O)(=O)C(F)(F)F)C(F)(F)F were, in that order, 0.32 ± 0.04, 0.33 ± 0.04 and 0.35 ± 0.04.
The like results for `C1CCCCCC1` [cycloheptane] + CCCCCCCCCC[N+](C)(C)C.O=S(=O)([N-]S(=O)(=O)C(F)(F)F)C(F)(F)F were, in that order, 7.7 ± 0.35, 10.8 ± 0.49 and 14.6 ± 0.67.
With `CC(C)CO` [2-methyl-1-propanol] + CCCCCCCC[N+](C)(C)C.O=S(=O)([N-]S(=O)(=O)C(F)(F)F)C(F)(F)F, the activity coefficient is, setting by setting: (322.85 K) 1.87 ± 0.08; (332.65 K) 1.7 ± 0.07; (343.15 K) 1.51 ± 0.06.
Consider `C[N+](=O)[O-]` [nitromethane] + CCCCCCCC[N+](C)(C)C.O=S(=O)([N-]S(=O)(=O)C(F)(F)F)C(F)(F)F, for which the activity coefficient (322.85 K) was 0.6 ± 0.03, the activity coefficient (332.65 K) came to 0.58 ± 0.03 and the activity coefficient (343.15 K) turned out to be 0.55 ± 0.03.
Consider `C#CCCCC` [1-hexyne] + CCCCCCCC[N+](C)(C)C.O=S(=O)([N-]S(=O)(=O)C(F)(F)F)C(F)(F)F, for which the activity coefficient (322.85 K) came to 1.92 ± 0.08, the activity coefficient (332.65 K) is 1.89 ± 0.08 and the activity coefficient (343.15 K) came out at 1.82 ± 0.08.
As to `Cc1ccc(C)cc1` [1,4-dimethylbenzene] + CCCCCCCC[N+](CCCCCCCC)(CCCCCCCC)CCCCCCCC.O=S(=O)([N-]S(=O)(=O)C(F)(F)F)C(F)(F)F, the activity coefficient runs as follows: (332.65 K) 0.6 ± 0.03; (343.15 K) 0.62 ± 0.03.
`CCC(C)CC` [3-methylpentane] + CCCC[N+](C)(CCCC)CCCC.O=S(=O)([N-]S(=O)(=O)C(F)(F)F)C(F)(F)F: the activity coefficient was 6.1 ± 0.28 (322.85 K), 6.17 ± 0.28 (332.65 K) and 5.86 ± 0.27 (343.15 K).
The like results for `CCCCCCC` [heptane] + CCCCCCCC[N+](CCCCCCCC)(CCCCCCCC)CCCCCCCC.O=S(=O)([N-]S(=O)(=O)C(F)(F)F)C(F)(F)F were, in that order, 1.5 ± 0.06, 1.48 ± 0.06 and 1.47 ± 0.06.
Turning to `CC1CCCCC1` [methylcyclohexane] + CCCCCCCC[N+](CCCCCCCC)(CCCCCCCC)CCCCCCCC.O=S(=O)([N-]S(=O)(=O)C(F)(F)F)C(F)(F)F, the activity coefficient came out at 1.07 ± 0.03 (322.85 K), 1.06 ± 0.03 (332.65 K) and 1.05 ± 0.03 (343.15 K).
As to `CCC(=O)CC` [pentan-3-one] + CCCCCCCC[N+](C)(C)C.O=S(=O)([N-]S(=O)(=O)C(F)(F)F)C(F)(F)F, the activity coefficient amounted to 0.52 ± 0.03 (322.85 K), 0.53 ± 0.03 (332.65 K) and 0.54 ± 0.03 (343.15 K).
The like results for `C#CCCCCC` [1-heptyne] + CCCCCCCCCC[N+](C)(C)C.O=S(=O)([N-]S(=O)(=O)C(F)(F)F)C(F)(F)F were, in that order, 1.95 ± 0.09, 2.02 ± 0.09 and 1.97 ± 0.09.
The corresponding values for `CCC(C)CC` [3-methylpentane] + CCCCCCCC[N+](C)(C)C.O=S(=O)([N-]S(=O)(=O)C(F)(F)F)C(F)(F)F are 5.62 ± 0.26, 5.24 ± 0.24 and 4.87 ± 0.22.
The corresponding values for `CCCCCCCCCCC` [undecane] + CCCC[N+](C)(CCCC)CCCC.O=S(=O)([N-]S(=O)(=O)C(F)(F)F)C(F)(F)F are 25.7 ± 1.2, 24.8 ± 1.1 and 22.8 ± 1.1.
`Cc1cccc(C)c1` [1,3-dimethylbenzene] + CCCCCCCCCC[N+](C)(C)C.O=S(=O)([N-]S(=O)(=O)C(F)(F)F)C(F)(F)F: the activity coefficient stood at 1.11 ± 0.03 (322.85 K), 1.14 ± 0.03 (332.65 K) and 1.11 ± 0.03 (343.15 K).
Consider `Cc1ccccc1` [toluene] + CCCCCCCC[N+](CCCCCCCC)(CCCCCCCC)CCCCCCCC.O=S(=O)([N-]S(=O)(=O)C(F)(F)F)C(F)(F)F, for which the activity coefficient came to 0.47 ± 0.03 (322.85 K), 0.48 ± 0.03 (332.65 K) and 0.49 ± 0.03 (343.15 K).
The like results for `CCCCCCCC` [octane] + CCCC[N+](C)(CCCC)CCCC.O=S(=O)([N-]S(=O)(=O)C(F)(F)F)C(F)(F)F were, in that order, 11.6 ± 0.53, 11.5 ± 0.53 and 10.8 ± 0.5.
The like results for `CO` [methanol] + CCCCCCCC[N+](C)(C)C.O=S(=O)([N-]S(=O)(=O)C(F)(F)F)C(F)(F)F were, in that order, 0.92 ± 0.03, 0.78 ± 0.03 and 0.81 ± 0.03.
The like results for `CCC=O` [propanal] + CCCCCCCC[N+](C)(C)C.O=S(=O)([N-]S(=O)(=O)C(F)(F)F)C(F)(F)F were, in that order, 0.48 ± 0.03, 0.47 ± 0.03 and 0.46 ± 0.03.
For the molecule `C#CCCCC` [1-hexyne] + CCCC[N+](C)(CCCC)CCCC.O=S(=O)([N-]S(=O)(=O)C(F)(F)F)C(F)(F)F, the activity coefficient runs as follows: (322.85 K) 2.12 ± 0.1; (332.65 K) 2.24 ± 0.1; (343.15 K) 2.2 ± 0.1.
The like results for `CCN(CC)CC` [triethylamine] + CCCCCCCC[N+](CCCCCCCC)(CCCCCCCC)CCCCCCCC.O=S(=O)([N-]S(=O)(=O)C(F)(F)F)C(F)(F)F were, in that order, 1.03 ± 0.03, 1.05 ± 0.03 and 1.02 ± 0.03.
For `CCCCCCCCCCCC` [dodecane] + CCCC[N+](C)(CCCC)CCCC.O=S(=O)([N-]S(=O)(=O)C(F)(F)F)C(F)(F)F, the activity coefficient is, setting by setting: (322.85 K) 32.4 ± 1.5; (332.65 K) 31.3 ± 1.4; (343.15 K) 28.8 ± 1.3.
The like results for `C[N+](=O)[O-]` [nitromethane] + CCCCCCCC[N+](CCCCCCCC)(CCCCCCCC)CCCCCCCC.O=S(=O)([N-]S(=O)(=O)C(F)(F)F)C(F)(F)F were, in that order, 0.63 ± 0.03, 0.61 ± 0.03 and 0.59 ± 0.03.
With `CCCCCCCCCC` [decane] + CCCCCCCCCC[N+](C)(C)C.O=S(=O)([N-]S(=O)(=O)C(F)(F)F)C(F)(F)F, the activity coefficient was 10.1 ± 0.46 (322.85 K), 9.82 ± 0.45 (332.65 K) and 9.32 ± 0.43 (343.15 K).
The corresponding values for `ClC(Cl)(Cl)Cl` [tetrachloromethane] + CCCCCCCCCC[N+](C)(C)C.O=S(=O)([N-]S(=O)(=O)C(F)(F)F)C(F)(F)F are 1.46 ± 0.06, 1.5 ± 0.06 and 1.47 ± 0.06.
The like results for `C[N+](=O)[O-]` [nitromethane] + CCCCCCCCCC[N+](C)(C)C.O=S(=O)([N-]S(=O)(=O)C(F)(F)F)C(F)(F)F were, in that order, 0.56 ± 0.03, 0.58 ± 0.03 and 0.55 ± 0.03.
